Laboratory results: US12583848B2, “Isoxazole-3-carboxamide derivatives and their use for treatment of diseases caused by virus infection” (Collaborations Pharmaceuticals, Inc., priority 2019, dated 2026)
≈ marks a conversion by molar mass, not a printed value. Where “and” joins values, the source holds several entries; their conditions need not be identical. Equal entries are not always repeated. Where two headings read alike, the source gives them in different places.

Assays:
[1] = system: CVB3 97927-I1207K (pleconaril-resistant variant); type: cell-based, coxsackievirus B3
[2] = system: CVB3 97927-I1207M (pleconaril-resistant variant); type: cell-based, coxsackievirus B3
[3] = system: CVB3 97927-I1207T (pleconaril-resistant variant); type: cell-based, coxsackievirus B3
rhinovirus A2 (RV-A2) = test: organism not typed; type: cell-based; settings: HeLa, 72 h, read-out: IC50 against Rhinoviruses (RV) RV-A2
rhinovirus B5 (RV-B5) = test: organism not typed; type: cell-based; settings: HeLa cells, CPE inhibition, 72 hours; n.a. = not active; read-out: IC50 against Rhinoviruses (RV) RV-B5
rhinovirus B14 (RV-B14) = test: organism not typed; type: cell-based; settings: HeLa, 72 h, read-out: IC50 against Rhinoviruses (RV) RV-B14
[4] = Pharmacokinetic study in mice; type: in vivo, white BALB/c male mice
Description: The pharmacokinetics of the compound 8 has been studied in white BALB/c male mice. 22 animals with average body weight of 20 g were selected for the study. Before the experiment the animals were kept on standard vivarium ration with dry pelleted feed. All the test animals had free access to water but were deprived of food for 1 hour before administration of the compound. This regimen was continued for another hour after the administration. […] The animals were euthanized by decapitation for blood sampling. […] Blood was collected in heparinized tubes and centrifuged at 3500 RPM. Plasma was separated from formed elements and immediately frozen at -20° C. in freezer. This storage continued before transferring of plasma for analysis. Serum from 6 untreated animals was used as control and for equipment calibration with compound. Mice brain was immediately frozen at -120° C. Plasma separation: […] Sample preparation: A mixture of 50 μL of plasma and 150 μL of MeCN by intensive shaking (Vortex) for 30 sec. Centrifugation 14000 g for 4 min. […] See also FIG. 1.

[5] = system: polio virus-1 (strain Mahoney); test: organism not typed; type: cell-based; parameters: SI50: unit not given beside the values
[6] = system: Enterovirus 68 (strain US/KY/14-18953); test: microbe, parasite or virus in culture; type: cell-based; parameters: SI50: unit not given beside the values
[7] = system: enterovirus 71 (strain Tainan/4643/98); test: microbe, parasite or virus in culture; type: cell-based; parameters: SI50: unit not given beside the values
[8] = system: influenza A virus, subtype H1N1 (strain California/07/2009); test: microbe, parasite or virus in culture; type: cell-based; parameters: SI50: unit not given beside the values
mouse-adapted EV D68 = test: microbe, parasite or virus in culture; type: cell-based; parameters: SI50: unit not given beside the values
Solubility = type: physicochemical; settings: pH 7.4, aqueous buffer
Description: (§1) In vitro ADME studies were performed on compound 8.

[9] = Cell permeability (Caco-2); type: in vitro ADME; settings: human, Caco-2
Description: (§2) In vitro ADME studies were performed on compound 8. Cell permeability (Caco-2) results were as follows: Apical (A) to (Basolateral) B 8.8×10^−4 cm/s; […]

Caco-2 = test: Cell permeability (Caco-2); type: in vitro ADME; settings: concluded from Caco-2 efflux
Description: as §2

[10] = Microsomal stability, mouse liver microsomes; type: in vitro ADME
Description: as §1

[11] = Microsomal stability, human liver microsomes; type: in vitro ADME
Description: as §1

Protein binding, human = type: in vitro ADME
Description: as §1

Protein binding, mouse = type: in vitro ADME
Description: as §1

[12] = system: Enterovirus D68 (EV-D68 MP30 PP); type: in vivo, AG129 mice; settings: for weight loss (percentage of initial body weight) following infection: 100 mg/kg/d PO, EV-D68 infected AG129 mice, days 1-5
[13] = system: viruses resistant to pleconaril; test: Inhibition of replication of a broad spectrum of EV in vitro; type: cell-based; settings: read-out: IC50 values for viruses resistant to pleconaril
cytochrome P450 = test: Effect on cytochrome P450 enzyme activity; type: in vitro ADME
HeLa cells = settings: human
CYP3A4 = settings: for CYP3A4 induction, % of control: control = rifampicin; for CYP3A4 induction (fold): cryopreserved hepatocytes, midazolam substrate
PXR = PXR (Homo sapiens, UniProt O75469); test: biochemical
PXR, sequence (O75469 111-434 limits assumed): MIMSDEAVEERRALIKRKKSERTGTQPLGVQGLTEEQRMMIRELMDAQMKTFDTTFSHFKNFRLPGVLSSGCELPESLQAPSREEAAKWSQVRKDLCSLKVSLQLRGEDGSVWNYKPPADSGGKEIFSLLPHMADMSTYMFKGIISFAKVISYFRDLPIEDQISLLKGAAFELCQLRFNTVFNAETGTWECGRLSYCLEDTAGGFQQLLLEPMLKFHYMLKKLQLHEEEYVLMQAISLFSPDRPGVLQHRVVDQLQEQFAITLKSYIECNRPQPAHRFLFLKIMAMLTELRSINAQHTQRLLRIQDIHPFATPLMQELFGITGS

[14] = mice, 100 mg/kg intragastric, plasma
[15] = read-out: Protein binding, bound (converted)

Cc1cc(-c2noc(C(F)(F)F)n2)ccc1OCCCc1cc(C(=O)N(C)C)no1 [Compound 8, N,N-dimethyl-5-(3-{2-methyl-4-[5-(trifluoromethyl)-1,2,4-oxadiazol-3-yl]phenoxy}propyl)isoxazole-3-carboxamide]
IC50 [1]: 3.67 µM | IC50 [2]: 0.004 µM | IC50 [3]: 0.01 µM | IC50 (rhinovirus A2 (RV-A2)): 0.41 µM | IC50 (rhinovirus B5 (RV-B5)): 2.26 µM | IC50 (rhinovirus B14 (RV-B14)): 0.07 µM | Concentration in mice plasma ([4]; 0.50 hours, individual mice, 100 mg/kg intragastric, 100 mg/kg): 963.29 ng/mL and 2031.52 ng/mL and 1979.28 ng/mL and 2114.06 ng/mL and 1464.12 ng/mL | Concentration in mice plasma ([4]; 1 hour, individual mice, 100 mg/kg intragastric, 100 mg/kg): 660.65 ng/mL and 1138.34 ng/mL | Concentration in mice plasma ([4]; 2 hours, individual mice, 100 mg/kg intragastric, 100 mg/kg): 667.90 ng/mL and 379.89 ng/mL and 461.99 ng/mL | Concentration in mice plasma ([4]; 3 hours, individual mice, 100 mg/kg intragastric, 100 mg/kg): 344.86 ng/mL and 107.10 ng/mL and 403.55 ng/mL | Concentration in mice plasma ([4]; 5 hours, individual mice, 100 mg/kg intragastric, 100 mg/kg): 228.15 ng/mL and 74.82 ng/mL and 147.00 ng/mL | Concentration in mice plasma ([4]; 7 hours, individual mice, 100 mg/kg intragastric, 100 mg/kg): 90.82 ng/mL and 44.49 ng/mL and 13.49 ng/mL and 45.70 ng/mL | concentration at 0.5 h ([4]; male, BALB/c, mouse, plasma, oral, 100 mg/kg, 0.50 hours, 100 mg/kg intragastric): 1710 ng/mL | concentration at 1 h ([4]; male, BALB/c, mouse, plasma, oral, 100 mg/kg, 1 hour, 100 mg/kg intragastric, read-out: Concentration in mice plasma, Average): 966 ng/mL | concentration at 1 h ([4]; male, BALB/c, mouse, plasma, oral, 100 mg/kg, 1 hour, individual mice, 100 mg/kg intragastric, read-out: Concentration in mice plasma): 1100 ng/mL | concentration at 2 h ([4]; male, BALB/c, mouse, plasma, oral, 100 mg/kg, 2 hours, 100 mg/kg intragastric, read-out: Concentration in mice plasma, Average): 536 ng/mL | concentration at 2 h ([4]; male, BALB/c, mouse, plasma, oral, 100 mg/kg, 2 hours, individual mice, 100 mg/kg intragastric, read-out: Concentration in mice plasma): 634 ng/mL | concentration at 3 h ([4]; male, BALB/c, mouse, plasma, oral, 100 mg/kg, 3 hours, 100 mg/kg intragastric): 285 ng/mL | concentration at 5 h ([4]; male, BALB/c, mouse, plasma, oral, 100 mg/kg, 5 hours, 100 mg/kg intragastric): 124 ng/mL | concentration at 7 h ([4]; male, BALB/c, mouse, plasma, oral, 100 mg/kg, 7 hours, 100 mg/kg intragastric): 49.6 ng/mL | AUC ([4]; male, BALB/c, mouse, po, mice, 100 mg/kg intragastric, plasma, read-out: AUC0-oo): 3020 ng·h/mL | oral bioavailability ([4]; mice): very high oral bioavailability | CL [4, 14]: 0.66 L/h | Cmax. [4, 14]: 1710.5 ± 489.2 ng/mL | MRT [4, 14]: 129 min | T1/2 [4, 14]: 94.8 min | Tmax. [4, 14]: 30 min | Vd [4, 14]: 1.52 L | kel [4, 14]: 0.4373 h⁻¹ | SI50 [5]: 11 | EC50 ([5]; Vero 76): 0.32 µM | SI50 [6]: >520 | EC50 ([6]; Enterovirus D): 0.018 µM | SI50 [7]: 24 | EC50 ([7]; Enterovirus A, Vero 76): 0.94 µM | SI50 [8]: 4.3 | EC90 ([8]; Influenza A virus, H1N1): 4.4 µM | SI50 (mouse-adapted EV D68): 173 | EC50 (mouse-adapted EV D68; Enterovirus D, EVD68): 0.023 µM | solubility (Solubility): 0.11 µM (≈ 0.0467 µg/mL) | efflux ratio [9]: 3.5 | P-gp substrate (Caco-2): likely P-gp substrate | microsomal stability (verdict) [10]: unstable | half-life ([10]; read-out: half-life (t1/2)): 19.6 min | microsomal CLint ([10]; read-out: intrinsic clearance (CLint)): 70.6 µL/min/mg | half-life [11]: 55.3 min | microsomal CLint [11]: 25.1 µL/min/mg | Protein binding, stability (Protein binding, human): 93.9% | fraction unbound (Protein binding, human; [15]): 0.003 | Protein binding, stability (Protein binding, mouse): 88.1% | fraction unbound (Protein binding, mouse; [15]): 0.002 | weight loss (percentage of initial body weight) following infection [12]: protected mice from weight loss | weight loss (percentage of initial body weight) following infection ([12]; listed as compound 8): significant protection from weight loss | blood virus ([12]; day 5 post-infection): No virus was detected | IC50 [13]: 0.04 to 0.64 µM | effect on cytochrome P450 enzyme activity (cytochrome P450): without affecting cytochrome P450 enzyme activity | CC50 (HeLa cells): 13.4 µM | CYP3A4 induction, % of control (CYP3A4; 1 μM): 3 % of control | CYP3A4 induction (fold) (CYP3A4; 1 μM): 1.2 × | CYP3A4 induction, % of control (CYP3A4; 10 μM): 7 % of control | CYP3A4 induction (fold) (CYP3A4; 10 μM): 1.4 × | Mutagenicity (Escherichia coli PQ37): NO | CC50 (in vitro): 52 µM | IC50 (PXR): > 100 µM
